Reference: patent publication US9926321B2, “Hsp90 inhibitors” (Sloan-Kettering Institute for Cancer Research, priority 2011, dated 2018)
One block for each molecule: values may come before it.

Key:
Hsp90 (SKBr3 lysate) = assay: Hsp90 binding assay (fluorescence polarization, cy3B-GM displacement), human cancer cell lysate; conditions: lysate not given
Method: (§1) For the binding studies, fluorescence polarization (FP) assays w-re performed similarly as was previously reported [Du et al. (2007) “High-throughput screening fluorescence polarization assay for tumor-specific Hsp90” J. Biomol. Screen 12:915-924]. Briefly, FP measurements were performed on an Analyst GT instrument (Molecular Devices, Sunnyvale, Calif.). Measurements were taken in black 96-well microtiter plates (Corning #3650) where both the excitation and the emission occurred from the top of the well. A stock of 10 μM cy3B-GM was prepared in DMSO and diluted with HFB buffer (20 mM Hepes (K), pH 7.3, 50 mM KCl, 2 mM DTT, 5 mM MgCl2, 20 mM Na2MoO4, and 0.01% NP40 with 0.1 mg/mL BGG). The test compounds were dissolved in DMSO and added at several concentrations to the HFB assay buffer containing both 6 nM cy3B-GM and transgenic mouse brain lysate (6 μg JNPL3 lysate) or human cancer cell lysate (3 μg SKBr3 lysate) in a final volume of 100 μL. Drugs were added to triplicate wells. Free cy3B-GM (6 nM cy3B-GM), bound cy3B-GM (6 nM cy3B-GM+lysate, as indicated above) and buffer only containing wells (background) were included as controls in each plate. Plates were incubated on a shake at 4° C., and polarization values measured at 24 h. Percentage inhibition was calculated as follows: (% Control)=100−((mPc−mPf)/(mPb−mPf))×100, where mPc is the recorded mP from compound wells, mPf is the average recorded mP from cy3B-GM-only wells, and mPb is the average recorded mP from wells containing both cy3B-GM and lysate, and plotted against values of competitor concentrations. The inhibitor concentration at which 50% of bound cy3B-GM was displaced was obtained by fitting the data using a nonlinear regression analysis as implemented in Prism 4.0 (GraphPad Software).

Hsp90 = assay: as above; conditions: fluorescence polarization, cy3B-GM displacement; the table does not say which lysate (SKBr3 or JNPL3)
Method: as §1

Compound: CC(C)(C)NS(=O)(=O)CCn1c(Sc2cc3c(cc2I)OCO3)nc2c(N)ncnc21 [Compound 1A-5, 2-[6-Amino-8-(6-iodo-benzo[1,3]dioxol-5-ylsulfanyl)-purin-9-yl]-ethanesulfonic acid tert-butylamide]
- Hsp90 binding affinity (in words, referring to Table 12) (Hsp90 (SKBr3 lysate)): high level of binding affinity
- IC50 (Hsp90): 78 nM

Compound: CC(C)(C)S(=O)(=O)NCCn1c(Sc2cc3c(cc2I)OCO3)nc2c(N)ncnc21 [Compound 1A-11, 2-Methyl-propane-2-sulfonic acid {2-[6-amino-8-(6-iodo-benzo[1,3]dioxol-5-ylsulfanyl)-purin-9-yl]-ethyl}-amide]
- Hsp90 binding affinity (in words, referring to Table 12) (Hsp90 (SKBr3 lysate)): high level of binding affinity
- IC50 (Hsp90): 71.5 nM

Compound: CC(C)(C)NS(=O)(=O)CCCn1c(Sc2cc3c(cc2I)OCO3)nc2c(N)ncnc21 [Compound 1A-19, 3-[6-Amino-8-(6-iodo-benzo[1,3]dioxol-5-ylsulfanyl)-purin-9-yl]-propane-1-sulfonic acid tert-butylamide]
- Hsp90 binding affinity (in words, referring to Table 12) (Hsp90 (SKBr3 lysate)): high level of binding affinity
- IC50 (Hsp90): 44 nM

Compound: CC(C)CS(=O)(=O)NCCCn1c(Sc2cc3c(cc2I)OCO3)nc2c(N)ncnc21 [Compound 1A-27, 2-Methyl-propane-1-sulfonic acid {3-[6-amino-8-(6-iodo-benzo[1,3]dioxol-5-ylsulfanyl)-purin-9-yl]-propyl}-amide]
- IC50 (Hsp90): 64 nM

Compound: CC(C)C(=O)NCCCn1c(Sc2cc3c(cc2I)OCO3)nc2c(N)ncnc21 [Compound 1A-44, N-(3-(6-Amino-8-((6-iodobenzo[d][1,3]dioxol-5-yl)thio)-9H-purin-9-yl)propyl)isobutyramide]
- IC50 (Hsp90): 68 nM

Compound: NC(=O)CCCCCn1c(Sc2cc3c(cc2I)OCO3)nc2c(N)ncnc21 [Compound 1A-50, 6-(6-amino-8-((6-iodobenzo[d][1,3]dioxol-5-yl)thio)-9H-purin-9-yl)hexanamide]
- IC50 (Hsp90): 76.5 nM

Compound: CC(C)(C)[S+]([O-])NCCn1c(Sc2cc3c(cc2I)CCC3)nc2c(N)ncnc21 (centres unmarked) [Compound 3A-12, 2-Methyl-propane-2-sulfinic acid {2-[6-amino-8-(6-iodo-indan-5-ylsulfanyl)-purin-9-yl]-ethyl}-amide]
- Hsp90 binding affinity (in words, referring to Table 12) (Hsp90 (SKBr3 lysate)): high level of binding affinity

Second part, led by results:

- IC50 (Hsp90): 6.3 nM
Compound: CS(=O)(=O)NCCn1c(Sc2cc3c(cc2I)OCO3)nc2c(N)ncnc21 [Compound 1A-10, N-{2-[6-Amino-8-(6-iodo-benzo[1,3]dioxol-5-ylsulfanyl)-purin-9-yl]-ethyl}-methanesulfonamide]
- Hsp90 binding affinity (in words, referring to Table 12) (Hsp90 (SKBr3 lysate)): high level of binding affinity

- IC50 (Hsp90): 24 nM
Compound: CC(C)(C)S(=O)(=O)NCCCn1c(Sc2cc3c(cc2I)OCO3)nc2c(N)ncnc21 [Compound 1A-25, 2-Methyl-propane-2-sulfonic acid {3-[6-amino-8-(6-iodo-benzo[1,3]dioxol-5-ylsulfanyl)-purin-9-yl]-propyl}-amide]

- IC50 (Hsp90): 19.7 nM
Compound: Nc1ncnc2c1nc(Sc1cc3c(cc1I)OCO3)n2CCCNS(=O)(=O)C1CC1 [Compound 1A-28, Cyclopropanesulfonic acid {3-[6-amino-8-(6-iodo-benzo[1,3]dioxol-5-ylsulfanyl)-purin-9-yl]-propyl}-amide]

- IC50 (Hsp90): 16.5 nM
Compound: CC(=O)OC(C)(C)C(=O)NCCCn1c(Sc2cc3c(cc2I)OCO3)nc2c(N)ncnc21 [Compound 1A-47, 1-((3-(6-Amino-8-((6-iodobenzo[d][1,3]dioxol-5-yl)thio)-9H-purin-9-yl)propyl)amino)-2-methyl-1-oxopropan-2-yl acetate]

- IC50 (Hsp90): 28.3 nM
Compound: COc1ccc(I)c(Sc2nc3c(N)ncnc3n2CCCNC(=O)C(C)(C)C)c1 [Compound 1A-49, N-(3-(6-amino-8-((2-iodo-5-methoxyphenyl)thio)-9H-purin-9-yl)propyl)pivalamide]

- IC50 (Hsp90): 29.6 nM
Compound: CC(C)(C)[S+]([O-])NCCn1c(Cc2cc3c(cc2I)OCO3)nc2c(N)nc(F)nc21 (centres unmarked) [Compound 4A-12, N-(2-(6-amino-2-fluoro-8-((6-iodobenzo[d][1,3]dioxol-5-yl)methyl)-9H-purin-9-yl)ethyl)-2-methylpropane-2-sulfinamide]
